# From patent US20260055061A1, “HALOPHTHALIMIDE COMPOUNDS AND METHODS OF USE AGAINST TBI, INFLAMMATORY DISORDER, AUTOIMMUNE DISORDER, NEURODEGENERATIVE DISEASE OR VIRAL INFECTION” (The United States of America, as represented by the …, priority 2022, published 2026)
# Tests used:
# [1] = Phase I metabolic stability in human liver microsomes (+/- NADPH, LC/MS); type: in vitro ADME; conditions: for % Compound Remaining (mean), NADPH: with NADPH; for % Compound Remaining (mean), -NADPH: without NADPH
# Protocol: The fluorinated compounds were evaluated under the more metabolically demanding conditions of a Phase-1-type microsomal analysis. […] For this initial comparison, the 7-fluoro-dithiopomaldiomide 30 was selected owing to its combination of favorable biological parameters and general ease of synthesis. The reactions on each sample were initiated by addition of human liver microsomes in the presence or absence of an NADPH regenerating system, and compound disappearance was monitored via LC/MS (FIG. 14, Table 10).
# [2] = test system: LPS-induced nitrite in RAW 264.7 cells; assay: LPS-induced nitrite production in RAW 264.7 cells (Griess reagent / fluorometric kit); type: cell-based, mouse; conditions: for nitrite level, % of vehicle control: percentage of vehicle control value (control = 100%), mean ± S.E.M., n = 3; for nitrite inhibitory activity (comparison in words): tetrafluoro vs corresponding difluoro or stereoisomer; for Nitrite, % Change versus Control (± s.e.m.): 10 uM
# Protocol: Nitrite ion detection in drug treated […] cell culture media: To measure the levels of nitrite ion NO2—) the Griess Reagent System (Promega, Madison, WI, Cat #G2930) was utilized. The protocol followed was that recommended by the manufacturer. In brief a NO2— ion standard curve was prepared in culture media of the same composition to that used for the cell culture study. The concentration range of the standard curve was from 1.5 µM to 100 µM. Equal volumes (50 μL) of standards and unknown samples were added to clear 96 well plates in duplicate. Then 50 μL of sulfanilamide solution was added to each well and the plate was covered and incubated in the dark for 10 min. After the incubation period 50 μL of N-1-napthylethylenediamine dihydrochloride solution was added to each well and the plate was incubated in dark for a further 10 min. After this incubation, the plate was read at 550 nm on a SPECTRAmax PLUS plate reader and the absorbances were used to generate a NO2— standard curve and the NO2— ion levels of the unknown samples are determined using SoftMax Pro V5, Molecular Devices.
# Most neurons are highly vulnerable to RNS and ROS. Nitric oxide (NO) is one of RNSs, which is very short lived and cannot be readily measured. However, nitrite is a stable end product of nitric oxide metabolism. Therefore, nitrite acts as a surrogate measure of NO. The Griess Reagent System (Promega Corporation, Madison, WI) can be applied to measure nitrite levels in culture media following the manufacturer's protocol, and this system was used in the present study as it is a more sensitive assay compared to quantifying actions on TNF-α by ELISA assay. […] This challenge induces high level of TNF-α protein accompanied by a robust generation of nitrite.
# (§1) Cells were propagated as described by ATCC guidelines.
# TNF-α = assay: LPS-induced TNF-α production in RAW 264.7 cells (ELISA); type: cell-based, mouse; conditions: for TNF-α % Δ: percentage of vehicle control value (control = 100%), mean ± S.E.M., n = 3; for TNF-a, % Change versus Control (± s.e.m.): 10 uM
# Protocol: Enzyme-linked immunosorbent assay for TNF-α protein: Media TNF-α levels were measured by use of the Biolegend ELISA MAX Set Delux ELISA (#430904). The protocol used was that recommended by the manufacturer. In brief, a day prior to performing the assay, a 96 well plate was coated with a capture antibody directed against TNF-α. The following day the assay plate was washed and blocked with the kit blocking agent for 1 h while being mixed on a plate shaker at 200 rpm (all incubations were mixed at 200 rpm unless stated otherwise). A TNF-α protein standard curve was prepared in the assay diluent following the kit instructions and unknown media samples were likewise diluted in the same assay diluent. After blocking, the plate was washed and then both the standards and unknown media samples were added to the plate in duplicate. The standards and unknown samples were incubated for 2 h. After the incubation, the plate was washed and then the biotin labeled detection antibody was added to each well and incubated for a further 1 h. After this incubation, the avidin-HRP conjugate complex was added to each well and incubated for 30 min. The plate was washed and the chromogenic substrate 3,3′,5,5′-tetramethylbenzidine solution was added to each well. At this point the plate was covered and incubated in the dark for 15 min, with no mixing. After 15 min the chromogenic reaction was stopped by the addition of 2 N H2SO4 and the absorbance was read at 450 nm and for background subtractions at 570 nm, on a SPECTRAmax PLUS plate reader. The absorbances were used to generate a TNF-α a protein standard curve and the protein levels in the unknown samples were determined using SoftMax Pro V5, Molecular Devices.
# as §1
# RAW 264.7 cells = assay: Cell viability of drug treated RAW 264.7 cells (CellTiter 96 AQueous One, MTS); conditions: for Cell Viability % Δ: percentage of vehicle control value, mean ± S.E.M., n = 3; for Viability, % Change versus Control (± s.e.m.): 10 uM
# Protocol: Assessments of drug anti-TNF-α and nitric oxide generation in RAW 264.7 cells: RAW 264.7 cells were purchased from ATCC Manassas, VA, USA). The cells were grown in DMEM media (Invitrogen, DMEM, high glucose, GlutaMAX Supplement, pyruvate, #10569-010) supplemented with 10% FBS (Invitrogen, Fetal Bovine Serum, qualified, heat inactivated, #16140-071) with penicillin and streptomycin (Invitrogen, Penicillin-Streptomycin (10,000 U/mL), #15140-122) and were maintained at 37 C and 5% CO2. The cells were grown to 75%-85% confluence on 10 cm plates (corning-Fal-con, #353003) following the protocol described by ATTC. to assess for drug effects on LPS-induced markers of inflammation, namely TNF-α protein and nitrite ion levels (NO2, a stable end-product of nitric oxide metabolism) cells were seeded into 24 well (VWR, #10062-896) at a density of 200×10^3 cells per well. On each plate there was one blank well where no cells were added yet culture media in the well was treated similarly to wells with cells (n=1). The blank well media was used for background subtraction for various downstream assays. twenty-four hours after seeding the plate the seeding media was replaced with fresh media. Two hours after this the cells were exposed to a range of concentrations of drug test-compound(s) dissolved in 100% tissue culture grade dimethyl sjloxide (DMSO, SIGMA #D2650). Drug stocks were prepared in a 200 times more concentrated stock in DMSO. The final concentration of DMSO added to the cells was 0.5%. The effects of each concentration of drug were assessed in 4 wells per concentration in the 24 well plate (n=3 #-4). On each plate one set of wells were assigned as drug-vehicle control (i.e. DMSO), one test compound was assessed on one 24 well plate. […] One hour after the drugs were added the cells were challenged with lipopolysaccharide (LPS, SIGMA, serotype 055:B5) at a final concentration of 60 ng/ml. Twenty to twenty-four hours after the cells were challenged with LPS the culture media was collected and utilized for the measurement of markers of inflammation.
# Cellular viability assessment of drug treated RAW 264.7 cells: RAW 264.7 cell viability was determined by use of the CellTiter 96 AQueous One Solution Cell Proliferation Assay (Promega, Madison, WI). Changes in cellular health status were determined by use of indirect measures related to the formation of a colored tetrazolium dye product that can be measured spectrophotometrically at 490 nm. An increase in absorbance at 490 nm is indicative of an increase in numbers of healthy cells; similarly a reduction in absorbance is indicative of a reduction of healthy cells. After the culture media was harvested for use in TNF-α and NO2— ion assays, the media was replaced with 0.5 mL of fresh media plus 100 μL of the cell viability reaction mixture. After a 20-30 min incubation at 37° C. with 5% CO2 the absorbance at 490 nm was obtained using an infinite M200 PRO plate reader (TECAN, USA).
# Statistical analyses for RAW-derived assays: Data are expressed as a percentage change from the DMSO-vehicle control measurements. Measurements are expressed as mean±standard errors, where the n number represents the number of wells in a 24 well plate. Due to the presence of one blank control well on each plate, for some drug concentrations the n number is 3 # and not 4. Statistical comparisons were undertaken by use of a One-Way ANOVA with appropriate Bonferroni corrections for multiple comparisons, as required (GraphPad InStat Version 3.05). P values of <0.05 are considered to be of statistical significance.
# RAW 264.7 cell culture: RAW 264.7 mouse cells were purchased from ATCC (Manassas, VA, USA) and grown in DMEM media supplemented with 10% FCS, penicillin 100 U/ml and streptomycin 100 μg/ml (ThermoFisher Scientific, Asheville, NC, USA). The cells were maintained at 37° C. and 5% CO2.
# [3] = 1 μM, LPS-challenged RAW 264.7 cells
# [4] = 10 μM, LPS-challenged RAW 264.7 cells
# [5] = LPS-activated RAW 264.7 cells (Table 9)
# [6] = 30 μM, LPS-challenged RAW 264.7 cells
molecule,measurement,setting,value
Nc1ccc(F)c2c1C(=S)N(C1CCC(=S)NC1=O)C2=O (stereo not drawn) [drawing 96],"% Compound Remaining (mean), NADPH","[1]; human liver microsomes, 0 min",100%
same,"% Compound Remaining (mean), NADPH","[1]; human liver microsomes, 30 min",68%
same,"% Compound Remaining (mean), NADPH","[1]; human liver microsomes, 60 min",48%
same,"% Compound Remaining (mean), -NADPH","[1]; human liver microsomes, 0 min",100%
same,"% Compound Remaining (mean), -NADPH","[1]; human liver microsomes, 30 min",71%
same,"% Compound Remaining (mean), -NADPH","[1]; human liver microsomes, 60 min",53%
"C[C@H]1[C@H](N2C(=O)c3c(F)ccc(F)c3C2=O)C[C@@H]2C[C@H]1C2(C)C [Compound 17, 4,7-Difluoro-2-((1R,2R,3R,5S)-2,6,6-trimethylbicyclo[3.1.1]heptan-3-yl) isoindoline-1,3-dione]","nitrite level, % of vehicle control",[2]; [3],90 ± 5%
same,"nitrite level, % of vehicle control",[2]; [4],54 ± 3%
same,TNF-α % Δ,TNF-α; [3],95 ± 3%
same,TNF-α % Δ,TNF-α; [4],77 ± 3%
same,Cell Viability % Δ,"RAW 264.7 cells; 1 μM, RAW 264.7 cells",100 ± 4%
same,Cell Viability % Δ,"RAW 264.7 cells; 10 μM, RAW 264.7 cells",81 ± 5%
"C[C@H]1[C@H](N2C(=O)c3c(F)c(F)c(F)c(F)c3C2=O)C[C@@H]2C[C@H]1C2(C)C [Compound 11, 4,5,6,7-Tetrafluoro-2-((1R,2R,3R,5S)-2,6,6-trimethylbicyclo[3.1.1]heptan-3-yl) isoindoline-1,3-dione]","nitrite level, % of vehicle control",[2]; [3],48 ± 2%
same,nitrite inhibitory activity (comparison in words),[2]; 1 μM,more potent nitrite inhibitory activity
same,TNF-α % Δ,TNF-α; [3],76 ± 2%
same,Cell Viability % Δ,"RAW 264.7 cells; 1 μM, RAW 264.7 cells",90 ± 4%
Nc1cccc2c1C(=O)N(C1CCC(=O)NC1=O)C2=O (stereo not drawn),"Nitrite, % Change versus Control (± s.e.m.)",[2]; [5],91 ± 1.6 (N.S.) %
same,"TNF-a, % Change versus Control (± s.e.m.)",TNF-α; [5],95 ± 4.8 (N.S.) %
same,"Viability, % Change versus Control (± s.e.m.)",RAW 264.7 cells; [5],95 ± 1.2 (N.S.) %
"2-(2,6-dioxopiperidin-3-yl)-4-fluoro-7-nitroisoindoline-1,3-dione [Compound 23]","Nitrite, % Change versus Control (± s.e.m.)",[2]; LPS-activated RAW 264.7 cells,56.8 ± 2.2%
same,"TNF-a, % Change versus Control (± s.e.m.)",TNF-α; LPS-activated RAW 264.7 cells,86.0 ± 4.4%
same,"Viability, % Change versus Control (± s.e.m.)",RAW 264.7 cells; LPS-activated RAW 264.7 cells,104.9 ± 2.1%
"CC(C)Nc1ccc(F)c2c1C(=O)N(C1CCC(=S)NC1=O)C2=O (stereo not drawn) [Compound 27, 4-fluoro-7-(isopropylamino)-2-(2-oxo-6-thioxopiperidin-3-yl) isoindoline-1,3-dione]","Nitrite, % Change versus Control (± s.e.m.)",[2]; LPS-activated RAW 264.7 cells,74.8 ± 1.2%
same,"TNF-a, % Change versus Control (± s.e.m.)",TNF-α; LPS-activated RAW 264.7 cells,94.4 ± 2.8%
same,"Viability, % Change versus Control (± s.e.m.)",RAW 264.7 cells; LPS-activated RAW 264.7 cells,112.3 ± 1.7%
"Nc1cccc2c1C(=S)N(C1CCC(=S)NC1=O)C2=O (stereo not drawn) [4′, 3,6′-dithiopomalidomide, reference compound]",nitrite levels (in words),"[2]; six-compound pomalidomide grouping, RAW cell assay, FIGS. 12-13",reduced nitrite levels significantly
same,material consumed,"[1]; after 1 hr incubation, human liver microsomes",more than half
same,stability in human liver microsomes (in words),[1]; with and without NADPH,moderate level of instability
"CC1(C)[C@H]2CC[C@@H](CN3C(=O)c4c(F)ccc(F)c4C3=O)[C@@H]1C2 [Compound 19, 2-(((1S,2R,5S)-6,6-dimethylbicyclo[3.1.1]heptan-2-yl)methyl)-4,7-difluoroisoindoline-1,3-dione]","nitrite level, % of vehicle control",[2]; [3],79 ± 2%
same,"nitrite level, % of vehicle control",[2]; [4],63 ± 3%
same,"nitrite level, % of vehicle control",[2]; [6],22 ± 1%
same,TNF-α % Δ,TNF-α; [3],102 ± 2%
same,TNF-α % Δ,TNF-α; [4],82 ± 2%
same,Cell Viability % Δ,"RAW 264.7 cells; 1 μM, RAW 264.7 cells",98 ± 2%
same,Cell Viability % Δ,"RAW 264.7 cells; 10 μM, RAW 264.7 cells",93 ± 4%
same,Cell Viability % Δ,"RAW 264.7 cells; 30 μM, RAW 264.7 cells",67 ± 3%
Nc1ccc(F)c2c1C(=O)N(C1CCC(=O)NC1=O)C2=O (stereo not drawn) [drawing 91],"Nitrite, % Change versus Control (± s.e.m.)",[2]; [5],86 ± 3.9 (N.S.) %
same,"TNF-a, % Change versus Control (± s.e.m.)",TNF-α; [5],98 ± 1.5 (N.S.) %
same,"Viability, % Change versus Control (± s.e.m.)",RAW 264.7 cells; [5],102 ± 0.8 (N.S.) %
"C[C@@H]1[C@@H](N2C(=O)c3c(F)c(F)c(F)c(F)c3C2=O)C[C@H]2C[C@@H]1C2(C)C [Compound 12, 4,5,6,7-Tetrafluoro-2-((1S,2S,3S,5R)-2,6,6-trimethylbicyclo[3.1.1]heptan-3-yl) isoindoline-1,3-d ione]","nitrite level, % of vehicle control",[2]; [3],24 ± 3%
same,nitrite inhibitory activity (comparison in words),[2]; 1 μM,more potent nitrite inhibitory activity
same,TNF-α % Δ,TNF-α; [3],56 ± 5%
same,Cell Viability % Δ,"RAW 264.7 cells; 1 μM, RAW 264.7 cells",63 ± 4%
"CC(C)Nc1ccc(F)c2c1C(=O)N(C1CCC(=O)NC1=O)C2=O (stereo not drawn) [Compound 25, 2-(2,6-dioxopiperidin-3-yl)-4-fluoro-7-(isopropylamino) isoindoline-1,3-dione]","Nitrite, % Change versus Control (± s.e.m.)",[2]; LPS-activated RAW 264.7 cells,110.1 ± 4.4%
same,"TNF-a, % Change versus Control (± s.e.m.)",TNF-α; LPS-activated RAW 264.7 cells,87.1 ± 3.4%
same,"Viability, % Change versus Control (± s.e.m.)",RAW 264.7 cells; LPS-activated RAW 264.7 cells,99.9 ± 0.4%
Nc1c(F)ccc2c1C(=S)N(C1CCC(=S)NC1=O)C2=O (stereo not drawn) [drawing 94],"Nitrite, % Change versus Control (± s.e.m.)",[2]; [5],40 ± 1.2 (N.S.) $ %
same,"TNF-a, % Change versus Control (± s.e.m.)",TNF-α; [5],114 ± 3.9 (N.S.) %
same,"Viability, % Change versus Control (± s.e.m.)",RAW 264.7 cells; [5],92 ± 1.6 (N.S.) %
"CC1(C)[C@@H]2CC[C@@]1(C)[C@@H](N1C(=O)c3c(F)ccc(F)c3C1=O)C2 [Compound 20, 4,7-Difluoro-2-((1R,2S,4R)-1,7,7-trimethylbicyclo[2.2.1]heptan-2-yl) isoindoline-1,3-dione]","nitrite level, % of vehicle control",[2]; [3],90 ± 2%
same,"nitrite level, % of vehicle control",[2]; [4],78 ± 3%
same,"nitrite level, % of vehicle control",[2]; [6],39 ± 5%
same,inhibition at 30 µM,"[2]; Mus musculus, RAW264.7, 30 μM, LPS-challenged RAW 264.7 cells, read-out: nitrite inhibitory activity",39%
same,TNF-α % Δ,TNF-α; [3],100 ± 2%
same,TNF-α % Δ,TNF-α; [4],98 ± 3%
same,anti-TNF-α activity,TNF-α; [6],76%
same,TNF-α % Δ,TNF-α; [6],76 ± 4%
same,Cell Viability % Δ,"RAW 264.7 cells; 1 μM, RAW 264.7 cells",101 ± 3%
same,Cell Viability % Δ,"RAW 264.7 cells; 10 μM, RAW 264.7 cells",98 ± 4%
same,cell viability,"RAW 264.7 cells; 30 μM, RAW 264.7 cells",96%
same,Cell Viability % Δ,"RAW 264.7 cells; 30 μM, RAW 264.7 cells",96 ± 6%
same,cytotoxicity (in words),"RAW 264.7 cells; RAW 264.7 cells, 1 to 30 μM",the smallest
"CC1(C)[C@H]2CC[C@@H](CN3C(=O)c4c(F)c(F)c(F)c(F)c4C3=O)[C@@H]1C2 [Compound 13, 2-(((1S,2R,5S)-6,6-dimethylbicyclo[3.1.1]heptan-2-yl)methyl)-4,5,6,7-tetrafluoroisoindoline-1,3-dione]","nitrite level, % of vehicle control",[2]; [3],31 ± 3%
same,nitrite inhibitory activity (comparison in words),[2]; 1 μM,more potent nitrite inhibitory activity
same,TNF-α % Δ,TNF-α; [3],62 ± 3%
same,Cell Viability % Δ,"RAW 264.7 cells; 1 μM, RAW 264.7 cells",78 ± 3%
